{"source": "patent US11618772B2", "about": "(Kineta Chronic Pain, LLC, priority 2014, dated 2023)", "origin": "cited, not measured here", "biological_target": "T1, α9α10 nAChR (Rattus norvegicus, UniProt P43144+Q9JLB5)", "T1 construct": "host or cells: oocytes", "T1 sequence (P43144 26-479 limits assumed)": "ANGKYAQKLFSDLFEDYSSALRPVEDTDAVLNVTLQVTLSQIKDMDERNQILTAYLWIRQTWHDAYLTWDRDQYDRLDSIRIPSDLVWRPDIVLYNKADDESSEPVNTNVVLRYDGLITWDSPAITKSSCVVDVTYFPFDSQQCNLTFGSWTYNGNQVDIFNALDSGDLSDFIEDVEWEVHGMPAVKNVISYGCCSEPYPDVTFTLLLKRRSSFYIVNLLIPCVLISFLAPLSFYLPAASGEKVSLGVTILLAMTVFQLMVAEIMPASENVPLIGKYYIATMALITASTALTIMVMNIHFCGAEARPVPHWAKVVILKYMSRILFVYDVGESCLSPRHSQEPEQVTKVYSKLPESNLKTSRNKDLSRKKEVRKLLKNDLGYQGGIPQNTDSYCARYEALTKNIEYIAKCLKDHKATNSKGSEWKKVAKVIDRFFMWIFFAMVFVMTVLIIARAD", "T1 sequence (Q9JLB5 25-447 limits assumed)": "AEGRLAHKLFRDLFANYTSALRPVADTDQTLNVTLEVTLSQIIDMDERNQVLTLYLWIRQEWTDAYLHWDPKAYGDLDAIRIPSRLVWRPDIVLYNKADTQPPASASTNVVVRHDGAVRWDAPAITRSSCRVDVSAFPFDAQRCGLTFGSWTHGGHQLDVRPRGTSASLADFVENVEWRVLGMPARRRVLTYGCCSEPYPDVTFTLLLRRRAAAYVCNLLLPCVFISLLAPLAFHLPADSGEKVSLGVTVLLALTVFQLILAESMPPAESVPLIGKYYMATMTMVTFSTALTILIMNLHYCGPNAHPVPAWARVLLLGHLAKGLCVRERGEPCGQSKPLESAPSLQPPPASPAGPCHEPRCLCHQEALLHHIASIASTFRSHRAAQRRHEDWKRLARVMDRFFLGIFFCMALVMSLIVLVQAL", "conditions": "cited from earlier work"}
{"sequence": "GCCSDPRCRYRCR [RgIA]", "values": [{"measurement": "block of α9α10 nAChR", "value": "block α9α10 nAChR"}]}
